Reference: US20240092803A1, “BRIDGED COMPOUNDS AS KRAS G12D INHIBITOR AND DEGRADER AND THE USE THEREOF” (BEIGENE SWITZERLAND GMBH, priority 2021, published 2024)

Columns and labels:
[1] = tested on: pERK1/2(THR202/TYR204) level in AsPC-1 cells; assay: pERK assay (HTRF) in AsPC-1 cells; format: cell-based; settings: Homo sapiens, ASPC1, 2 h compound treatment
Experimental: AsPC-1 cell line was used in this study. Cells were maintained in RPMI-1640 supplemented with 10% fetal bovine serum (Thermo Fisher), 50 units/mL penicillin and streptomycin (Thermo Fisher) and kept at 37° C. in a humidified atmosphere of 5% CO2 in air. Cells were reinstated from frozen stocks that were laid down within 30 passages from the original cells purchased. 30000 cells per well were seeded into a 96-well plate and incubated overnight. Cells were treated with a 10-point dilution series. The final compound concentration is from 0 to 10 μM. After 2 h compound treatment, cells were lysed, and the pERK1/2(THR202/TYR204) level in the cell lysates was detected by HTRF kit (Cisbio). In brief, a total of 16 μl of cell lysate from each well of a 96-well plate was transferred to a 384-well white assay plate. Lysate from each well was incubated with 2 μL of Eu3+- cryptate (donor) labeled anti-phospho-ERK1/2 and 2 μL of D2 (acceptor) labeled anti-phospho-ERK1/2 antibodies (Cisbio) overnight in dark at room temperature. When donor and acceptor are in close proximity, excitation of the donor with laser triggers a Fluorescence Resonance Energy Transfer (FRET) towards the acceptor, which in turn fluoresces at 655 nm wavelength. FRET signals were measured using a PHERAstar FSX reader (BMG Labtech). IC50 determination was performed by fitting the curve of percent inhibition versus the log of the inhibitor concentration using Dotmatics.

[2] = biological target: GST-tagged WT KRAS (amino acids 1-188) binding to His-tagged SOS1 (Homo sapiens (Human), UniProt P01116); assay: KRAS WT:SOS1 GDP TR-FRET assay; settings: GDP 10 μM; WT KRAS 37.5 nM; SOS1 18 nM
Experimental: (§1) KRAS: SOS1 GDP TR-FRET Assay
(§2) This assay was used to identify compounds which competitively interact with the binding of KRAS protein to SOS1 in the presence of GDP. GST-tagged WT KRAS (amino acids 1-188), GST-tagged KRAS (amino acids 1-188) G12D and His- tagged SOS1 protein (amino acids 564-1049) was expressed in E. coli and purified. All protein and reaction solutions were prepared in assay buffer containing DPBS pH7.5, 0.1% BSA, and 0.05% Tween 20. Purified GST-tagged WT KRAS or KRAS G12D protein (37.5 nM final assay concentration) and GDP (Sigma, 10 μM final assay concentration) mixture, a serially diluted compound (top final concentration is 50 uM or 10 uM, 3-fold serially diluted, 10 points) and His-tagged SOS1 protein (18 nM final assay concentration) were added into the assay plates (384 well microplate, black, Corning) sequentially. Plates are incubated at 24° C. for 1 hr. Following the incubation, Mab Anti-6His-Tb cryptate (Cisbio) and Mab Anti GST-D2 (Cisbio) were added and further incubated at 24° C. for another 1 hr. The TR-FRET signals (ex337nm, em665nm/620nm) were read on BMG PHERAstar FSX instrument. The inhibition percentage of KRAS protein binding with SOS1 in presence of increasing concentrations of compounds was calculated based on the ratio of fluorescence at 665 nm to that at 620 nm. The IC50 value of each compound was calculated from fitting the data to the four-parameter logistic model by Dotmatics.

[3] = biological target: GST-tagged KRAS (amino acids 1-188) G12D binding to His-tagged SOS1 (Homo sapiens (Human), UniProt P01116, G12D); assay: KRAS G12D:SOS1 GDP TR-FRET assay; settings: GDP 10 μM; KRAS G12D 37.5 nM; SOS1 18 nM
Experimental: as §1, §2

[4] = biological target: KRAS G12D HiBiT in HEK293 KRAS-G12D NanoLuc cell pool (Homo sapiens (Human), UniProt P01116, G12D); assay: KRAS G12D NanoLuc assay; format: cell-based; settings: 24 h compound treatment
Experimental: HEK293 KRAS-G12D NanoLuc cell pool was used in this study. The cells were stable expressing KRAS G12D HiBiT and LgBiT. Cells were maintained in DMEM supplemented with 10% fetal bovine serum (Thermo Fisher), 50 units/mL penicillin and streptomycin (Thermo Fisher) and kept at 37° C. in a humidified atmosphere of 5% CO2 in air. Cells were reinstated from frozen stocks that were laid down within 30 passages from the cell pool was constructed. 20000 cells per well were seeded a 96-well White with Clear Flat bottom plate for 4 h. Cells were treated with a 10-point dilution series. The final compound concentration is from 0 to 10 μM. After 24 h compound treatment, added 20 μL of CellTiter-Fluor reagent (Promega) to plates, shook for 2 min, incubated at least 30 min in 37° C. Added 25 μL of NanoGlo Live cell reagent (Promega) to the same plate. shook by mini-shaker for 5 min. Measure Luminescence and Fluorescence (380-400nmEx/505nmEm) signals immediately using a PHERAstar FSX reader (BMG Labtech). DC50 determination was performed by fitting the curve of percent inhibition versus the log of the inhibitor concentration using Excel and GraphPad Prism 8.

[5] = biological target: KRAS G12D protein level in AsPC-1 cells (Homo sapiens (Human), UniProt P01116, G12D); assay: Western blotting assay in AsPC-1 cells; format: cell-based; settings: 3 uM, 48 h compound treatment, Western blot
Experimental: AsPC-1 cell line was used in this study. Cells were maintained in RPMI-1640 supplemented 10% fetal bovine serum (Thermo Fisher), 50 units/mL penicillin and streptomycin (Thermo Fisher) and kept at 37° C. In a humidified atmosphere of 5% CO2 in air. Cells were reinstated from frozen stocks that were laid down within 30 passages from the original cells purchased. 400000 AsPC-1 cells per well in 1 mL culture medium were seed in the 12-well plate for 4 hours. Cells were treated with an appropriate dilution series of compounds. After 48h compound treatment, medium was aspirated, the cells were washed with PBS, and then 30 μL of 1× protein lysis buffer (Cell Signaling Technology) containing protease inhibitors (Merck) and phosphatase inhibitors (Sigma) was added. The cells were lysed, and after centrifugation, the supernatants were quantified by BCA Protein assay Kit (Thermo Fisher). 4× loading Buffer (Thermo Fisher) was added to equal amounts of total protein from each sample and heated at 95° C. for 5 minutes. […]

SMILES | IC50 [1] | IC50 [2] | IC50 [3] | DC50 [4] | Dmax [4] | KRAS G12D protein level decrease [5]
CN1CCC[C@H]1COc1nc2c(c(N3CC4CCC(C3)N4)n1)CCN(c1cc(N)cc(Cl)c1C(F)(F)F)C2 [Example 12, 3-(4-(3,8-diazabicyclo[3.2.1]octan-3-yl)-2-(((S)-1-methylpyrrolidin-2-yl)methoxy)-5,8-dihydropyrido[3,4-d]pyrimidin-7(6H)-yl)-5-chloro-4-(trifluoromethyl)aniline] | 1.95 µM | 2.39 µM | 0.0098 µM | – | – | –
CN1CCC[C@H]1COc1nc2c(c(N3CC4CCC(C3)N4)n1)CCN(c1cc(N)cc(Cl)c1Cl)C2 [Example 13] | 4.1 µM | > 10 µM | 0.027 µM | – | – | –
CO[C@@H]1C[C@@H](COc2nc3c(c(N4CC5CCC(C4)N5)n2)CCN(c2cccc4cccc(Cl)c24)C3)N(C)C1 [Example 14, 4-(3,8-diazabicyclo[3.2.1]octan-3-yl)-7-(8-chloronaphthalen-1-yl)-2-(((2S,4R)-4-methoxy-1-methylpyrrolidin-2-yl)methoxy)-5,6,7,8-tetrahydropyrido[3,4-d]pyrimidine] | > 10 µM | > 10 µM | 0.126 µM | – | – | –
CN1C[C@H](F)C[C@H]1COc1nc2c(c(N3CC4CCC(C3)N4)n1)CCN(c1cccc3cccc(Cl)c13)C2 [Example 15, 4-(3,8-diazabicyclo[3.2.1]octan-3-yl)-7-(8-chloronaphthalen-1-yl)-2-(((2S,4R)-4-fluoro-1-methylpyrrolidin-2-yl)methoxy)-5,6,7,8-tetrahydropyrido[3,4-d]pyrimidine] | 4.03 µM | > 10 µM | 0.041 µM | – | – | –
Cc1ncsc1-c1ccc([C@H](C)NC(=O)[C@@H]2C[C@@H](O)CN2C(=O)[C@@H](NC(=O)CCCCCCN2CCC[C@H]2COc2nc3c(c(N4CC5CCC(C4)N5)n2)CCN(c2cccc4cccc(Cl)c24)C3)C(C)(C)C)cc1 [Example 16] | – | – | – | 1 µM | 73% | –
Cc1ncsc1-c1ccc([C@H](C)NC(=O)[C@@H]2C[C@@H](O)CN2C(=O)[C@@H](NC(=O)CCOCCCN2CCC[C@H]2COc2nc3c(c(N4CC5CCC(C4)N5)n2)CCN(c2cccc4cccc(Cl)c24)C3)C(C)(C)C)cc1 [Example 17] | – | – | – | 0.708 µM | 80% | 40%
